Literature values as cited in publication PMC6442678 (Journal of medicinal chemistry, 2018).

Conditions: mice, 24h after injection ref 52

In the case of Mn-EDTA-BTA, the “injected Mn retained” value is given as greater than 50%.
